One assay concerns the target Troponin, cardiac muscle (Homo sapiens, UniProt P19429+P45379+P63316). Briefly: Fluorescence-based biochemical high throughput dose response assay for activators of the calcium sensitivity of cardiac Regulated Thin Filaments (RTF). [Related pubchem assays (depositor defined):AID493008, AID493018, AID504382, AID504383]. Format: protein-complex assay.
Assay [1] concerns the target T1, Mannose-6-phosphate isomerase (Homo sapiens, UniProt P34949).
T1 sequence (P34949 whole entry): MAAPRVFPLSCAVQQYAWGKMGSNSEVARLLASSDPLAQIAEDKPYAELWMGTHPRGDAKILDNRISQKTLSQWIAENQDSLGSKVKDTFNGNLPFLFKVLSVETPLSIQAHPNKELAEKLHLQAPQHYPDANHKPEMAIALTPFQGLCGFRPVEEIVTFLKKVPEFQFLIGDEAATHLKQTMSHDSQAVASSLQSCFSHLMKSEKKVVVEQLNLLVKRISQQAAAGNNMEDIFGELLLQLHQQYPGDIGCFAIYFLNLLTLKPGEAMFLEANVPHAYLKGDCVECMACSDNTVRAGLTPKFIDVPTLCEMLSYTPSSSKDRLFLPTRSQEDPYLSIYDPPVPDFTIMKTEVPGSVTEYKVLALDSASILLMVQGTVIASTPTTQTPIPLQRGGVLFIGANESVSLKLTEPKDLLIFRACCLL
As to the kind of experiment: human PMI inhibitors, high substrate, primary screen, biochemical, fluorescence intensity, high mannose 6-phosphate (AID 1220).

In assay [2] the target is T2, Coagulation factor XII (Homo sapiens, UniProt P00748).
T2 sequence (P00748 whole entry): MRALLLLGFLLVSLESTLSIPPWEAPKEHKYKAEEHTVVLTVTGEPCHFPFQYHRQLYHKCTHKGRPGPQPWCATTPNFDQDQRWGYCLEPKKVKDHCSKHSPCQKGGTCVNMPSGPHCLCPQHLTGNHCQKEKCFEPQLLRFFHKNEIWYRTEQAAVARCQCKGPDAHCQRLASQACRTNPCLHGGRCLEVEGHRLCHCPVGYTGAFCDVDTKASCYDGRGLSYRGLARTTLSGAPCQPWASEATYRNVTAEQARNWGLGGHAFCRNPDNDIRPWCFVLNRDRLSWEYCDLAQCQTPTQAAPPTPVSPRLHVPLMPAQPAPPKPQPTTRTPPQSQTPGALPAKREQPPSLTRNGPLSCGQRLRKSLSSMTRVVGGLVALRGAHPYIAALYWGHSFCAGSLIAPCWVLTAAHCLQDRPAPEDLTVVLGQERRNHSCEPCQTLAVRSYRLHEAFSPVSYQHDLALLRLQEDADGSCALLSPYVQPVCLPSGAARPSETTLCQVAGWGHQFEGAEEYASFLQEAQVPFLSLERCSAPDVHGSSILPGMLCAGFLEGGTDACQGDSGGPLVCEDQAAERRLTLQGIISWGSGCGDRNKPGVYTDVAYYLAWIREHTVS
Briefly: FXIIa inhibitor potency, concentration-response, biochemical (AID 716). Format: functional.

The target of another assay is T3, Bcl-2-related protein A1 (Mus musculus, UniProt Q07440).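 Note: confirmatory dose–response counterscreen on Bfl-1, used to check hits from a UBC13 polyubiquitin inhibitor campaign.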
T3 sequence (Q07440 whole entry): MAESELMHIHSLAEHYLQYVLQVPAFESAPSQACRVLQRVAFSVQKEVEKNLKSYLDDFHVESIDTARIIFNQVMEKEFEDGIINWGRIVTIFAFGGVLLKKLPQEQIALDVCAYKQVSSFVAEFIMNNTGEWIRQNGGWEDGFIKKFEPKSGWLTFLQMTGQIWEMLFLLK
It is filed as functional.

Assay [3] addresses T4, Ubiquitin-conjugating enzyme E2 N (Homo sapiens, UniProt P61088).
T4 sequence (P61088 whole entry): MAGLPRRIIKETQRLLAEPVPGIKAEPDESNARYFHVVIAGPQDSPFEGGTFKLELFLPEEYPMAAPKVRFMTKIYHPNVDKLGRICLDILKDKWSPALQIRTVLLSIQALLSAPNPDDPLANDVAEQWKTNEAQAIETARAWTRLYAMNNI
Format: functional.

Assay [4] deals with T4, Ubiquitin-conjugating enzyme E2 N. Format: functional. The source holds these as a separate data set.
The target in assay [5] is T2, Coagulation factor XII. It is filed as functional.
For assay [6], the target named is T5, Replicative DNA helicase DnaB (Mycobacterium tuberculosis, UniProt P9WMR3).
T5 sequence (P9WMR3 whole entry): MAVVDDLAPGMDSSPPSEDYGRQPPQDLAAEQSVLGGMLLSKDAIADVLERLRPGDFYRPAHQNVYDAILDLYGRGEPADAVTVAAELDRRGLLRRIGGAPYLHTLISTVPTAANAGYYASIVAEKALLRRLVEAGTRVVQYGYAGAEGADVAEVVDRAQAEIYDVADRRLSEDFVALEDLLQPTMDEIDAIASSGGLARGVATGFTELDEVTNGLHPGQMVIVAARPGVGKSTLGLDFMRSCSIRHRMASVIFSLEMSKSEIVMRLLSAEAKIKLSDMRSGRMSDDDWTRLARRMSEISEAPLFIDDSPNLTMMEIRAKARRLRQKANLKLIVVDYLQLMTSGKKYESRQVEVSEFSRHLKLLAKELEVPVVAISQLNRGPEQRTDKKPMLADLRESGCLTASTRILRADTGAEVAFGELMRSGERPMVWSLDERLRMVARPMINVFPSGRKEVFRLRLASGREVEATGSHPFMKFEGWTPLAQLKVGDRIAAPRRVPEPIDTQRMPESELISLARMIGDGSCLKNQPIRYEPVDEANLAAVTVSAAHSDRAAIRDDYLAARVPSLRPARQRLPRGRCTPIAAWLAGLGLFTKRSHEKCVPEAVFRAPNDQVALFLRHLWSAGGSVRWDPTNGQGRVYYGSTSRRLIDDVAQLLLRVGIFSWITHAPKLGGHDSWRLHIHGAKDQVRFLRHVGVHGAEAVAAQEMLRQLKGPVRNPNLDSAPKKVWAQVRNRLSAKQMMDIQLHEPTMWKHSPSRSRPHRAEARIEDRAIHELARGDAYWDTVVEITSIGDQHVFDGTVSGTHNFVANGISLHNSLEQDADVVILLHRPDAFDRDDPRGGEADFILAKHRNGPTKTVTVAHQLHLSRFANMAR
Briefly: DnaB intein splicing inhibitors, dose response, biochemical, cell-free fluorescence (AID 449749). Format: functional.

In a further assay the target is T6, Protein RecA (Mycobacterium tuberculosis, UniProt P9WHJ3).
T6 sequence (P9WHJ3 whole entry): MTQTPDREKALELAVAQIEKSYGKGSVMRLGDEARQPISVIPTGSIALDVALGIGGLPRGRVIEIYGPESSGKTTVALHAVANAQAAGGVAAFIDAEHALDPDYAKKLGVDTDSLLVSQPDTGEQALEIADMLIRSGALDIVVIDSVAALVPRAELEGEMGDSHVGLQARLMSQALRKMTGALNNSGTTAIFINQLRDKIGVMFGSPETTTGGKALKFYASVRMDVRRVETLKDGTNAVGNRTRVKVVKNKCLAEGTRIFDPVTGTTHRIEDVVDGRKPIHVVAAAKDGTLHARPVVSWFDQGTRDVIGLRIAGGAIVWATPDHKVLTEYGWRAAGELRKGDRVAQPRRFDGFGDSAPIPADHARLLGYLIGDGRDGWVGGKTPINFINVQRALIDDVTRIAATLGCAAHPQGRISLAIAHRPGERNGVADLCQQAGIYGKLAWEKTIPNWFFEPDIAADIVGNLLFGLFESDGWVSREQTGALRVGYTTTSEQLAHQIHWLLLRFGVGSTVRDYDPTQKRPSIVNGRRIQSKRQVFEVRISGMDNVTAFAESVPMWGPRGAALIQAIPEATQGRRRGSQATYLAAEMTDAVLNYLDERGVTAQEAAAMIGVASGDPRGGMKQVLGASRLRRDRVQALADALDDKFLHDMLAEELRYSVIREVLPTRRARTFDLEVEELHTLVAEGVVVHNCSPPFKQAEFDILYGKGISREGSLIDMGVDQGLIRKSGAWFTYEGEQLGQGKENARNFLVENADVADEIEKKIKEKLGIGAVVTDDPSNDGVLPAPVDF
As to the kind of experiment: Fluorescence Cell-Free Homogeneous Dose Retest to Identify Inhibitors of RecA-Intein Splicing Activity. [Related pubchem assays (depositor defined):AID2097, AID2223, AID489010, AID492950]. Format: functional.

The next assay concerns the target Hexokinase (Trypanosoma brucei, UniProt Q38C41). Briefly: Confirmation assay for inhibitors of Trypanosoma brucei hexokinase 1-Analogue-first series. [Related pubchem assays (depositor defined):AID1430, AID1632, AID2516, AID2560, AID2579, AID2600, AID449725, AID492951]. It is filed as functional.

Activity calls are given as the source filed them.

Regarding `COc1ccc(S(=O)(=O)N2CN(Cc3ccco3)c3nc4ccccc4nc32)cc1`, the EC50 on Troponin, cardiac muscle is > 71.5 µM (inactive).

In the case of `CN1CC2(Cc3c1ccc1ccccc31)C(=O)OC(C)(C)OC2=O`, the IC50 in assay [1] is > 50 µM (not active); on Coagulation factor XII [2], > 50 µM (inactive).

On to `O=C(CCNC(=O)Cn1ccc2ccccc2c1=O)NCCN1CCN(c2cccc(Cl)c2)CC1`, for which the IC50 is > 20 µM (inactive) at Bcl-2-related protein A1, 8.08 µM (active) in assay [3] and 4.45 µM (active) in assay [4].

With `CC(=O)Nc1ccc(OC(=O)c2ccco2)cc1`, the IC50 on Coagulation factor XII [5] is > 50 µM (inactive). Further, the AC50 in [6] was 93.9 µM (active). At Protein RecA, the EC50 is 12.1 µM (active).

For the compound `COc1ccc(C(=O)Nc2ccc(Cl)cc2C(=O)O)cc1`, at Hexokinase, the IC50 was > 25 µM (inactive).

For orientation: EC50 means the concentration giving half of the maximal effect. As usually defined, the IC50 is the concentration that inhibits the measured activity by half. The AC50 is the midpoint of the concentration-response curve, whichever way the signal moves.

For the origin of these results see ChEMBL document CHEMBL1201862, “PubChem BioAssay data set” (2004).
